In patent US20240287048A1, “SUBSTITUTED ACYL SULFONAMIDES FOR TREATING CANCER” (The Broad Institute, Inc., priority 2020, published 2024) one finds IC50 and EC50 data, which are given here for 12 compounds.

Bounds are passed on as bounds.

Test [1] has as its target T1, KAT6B (Homo sapiens, UniProt Q8WYB5).
T1 construct: fused on or other part: N-terminal GST tag
As to the kind of experiment: Kat6b activity assay (TR-FRET, acetylation of biotinylated histone H4 peptide). The class given is biochemical. As to conditions: recombinant human GST-tagged Kat6b (431-end), 30 mins at 22° C., read-out: KAT6B activity assay IC50 [mol/l] (arithmetic mean). The source says:
Kat6b inhibitory activities of the compounds described in the present invention were quantified using a Fluorescence Resonance Energy Transfer (TR-FRET) assay which measures acetylation of a synthetic, biotinylated Histone-H4-derived peptide by the enzyme.
Recombinant human GST-tagged Kat6b protein (431-end, N-terminal GST-tag), purified from Baculovirus-infected insect cells (Sf9), was purchased from SignalChem (#K315-381BG). Histone H4 peptide (amino acids 1-24, […]-VLRD-K(Btn)-amide), which was used as substrate, was synthesized by Biosyntan GmbH, Berlin, Germany. Acetyl Coenzyme A was purchased from Sigma-Aldrich (#A-2056).
Kat6b was incubated for 30 mins at 22° C. in the presence of different concentrations of test substances (0 μM, and within the range 0.01-20 μM) in assay buffer [25 mM Tris/HCl pH 8, 1 mM EGTA, 2.5 mM Glutathion, 0.02% Chicken Albumin, 0.05% Pluronic F127, 25 mM NaCl, 500 nM H4 peptide and 600 nM Acetyl Coenzyme A].
The reaction was stopped by addition of Detection Solution (25 mM HEPES pH 7.5, 0.1% BSA, 22 nM SAXL665 (Cisbio #610SAXLE), 100 μM Anacardic Acid (Enzo #ALX-270-381), 1 nM Anti-Histone H4 (ACETYL K8) Antibody (ABCAM #AB15823), 0.5 nM Anti-Rabbit IgG Eu (Perkin Elmer #AD0083).
(§1) The fluorescence emission at 620 nm and 665 nm after excitation at 330-350 nm was measured in a TR-FRET measuring instrument, for instance a Rubystar or a Pherastar (both from BMG Lab Technologies, Offenburg, Germany) or a Viewlux (Perkin-Elmer). The ratio of the emission at 665 nm and at […] was used as indicator of the amount of acetylated peptide.
(§2) The resulting data (ratio) were normalized, taking 0% inhibition as the mean value of control measurements where all reagents were included. In this case 50 nl DMSO were used instead of compounds. […] IC50 values were determined by regression analysis based on a 4 parameter equation (minimum, maximum, ICM, Hill; Y=Max+(Min−Max)/(1+(X/ICso) Hill) using the Screener Software (Genedata).
(In general: In TR-FRET formats the signal depends on donor and acceptor labels being close together.)

Test [2] concerns the target T2, KAT6A (Homo sapiens, UniProt Q92794).
T2 construct: Recombinant human His-tagged Kat6a protein (amino acids 194-810); His; made in house; host or cells: Baculovirus-infected Sf9 insect cells
Kind of test: Kat6a activity assay (TR-FRET, acetylation of biotinylated histone H4 peptide). Format: biochemical. The following applies: recombinant human His-tagged Kat6a (amino acids 194-810), 60 mins at 22° C., read-out: KAT6A-DPF/HAT domain IC50 [mol/l] (arithmetic mean).
Source text: Kat6a inhibitory activities of the compounds described in the present invention were quantified using a Fluorescence Resonance Energy Transfer (TR-FRET) assay which measures acetylation of a synthetic, biotinylated Histone-H4-derived peptide by the enzyme.
Recombinant human His-tagged Kat6a protein (amino acids 194-810), was purified in-house from Baculovirus-infected insect cells (Sf9). Histone H4 peptide (amino acids 1-24, […]-VLRD-K(Btn)-amide), which was used as substrate, was synthesized by Biosyntan GmbH, Berlin, Germany. Acetyl Coenzyme A was purchased from Sigma-Aldrich (#A-2056).
Kat6a was incubated for 60 mins at 22° C. in the presence of different concentrations of test substances (0 μM, and within the range 0.01-20 μM) in assay buffer [25 mM Tris/HCl pH 8, 1 mM EGTA, 2.5 mM Glutathion, 0.02% Chicken Albumin, 0.05% Pluronic F127, 25 mM NaCl, 220 nM H4 peptide and 600 nM Acetyl Coenzyme A].
The reaction was stopped by addition of Detection Solution (25 mM HEPES pH 7.5, 0.1% BSA, 22 nM SAXL665 (Cisbio #610SAXLE), 100 μM Anacardic Acid (Enzo #ALX-270-381), 1 nM Anti-Histone H4 (ACETYL K8) Antibody (ABCAM #AB15823) and 0.5 nM Anti-Rabbit IgG Eu (Perkin Elmer #AD0083).
as §1, §2

The test system of test [3] is ESR1 transcription in MVLN cells. As to the kind of experiment: Repression of ESR1 transcription, MVLN luciferase reporter assay. As to conditions: Homo sapiens, luciferase signal after 24 h, read-out: MVLN reporter assay, IC50[M] (arithmetic mean). The class given is cell-based. The source says:
KAT6A controls transcription of the ESR1 gene in breast cancer cells. Compound treatment that interferes with this mechanism was quantified using MVLN cells. These cells constitutively express the ER and are stably transfected with the luciferase (LUC) reporter gene and the corresponding hormone responsive element derived from the 5′-flanking region of the Xenopus Vitellogenin A2 gene (Pons et al., 1990, Demirpense et al., 1993, Joyeux et al., 1993). The repressive effect on ERα transcription activity of a test chemical is directly related to the luciferase measured in the lysate of treated MVLN cells.
Each sample was prepared as duplicate and rim wells were excluded. For luciferase signal determination 100 μl of a 1:1 mixture of Steadylite plus (Perkin Elmer; 6016759) and assay medium was added after 24 h for 15 minutes and measured in Victor X3 (Perkin Elmer). To exclude any effects caused by cell loss during the treatment, cell density was determined using Alamar Blue (Invitrogen; DAL1100). Prior to the luciferase measurement 10 μl Alamar Blue were added to each well and the plates were incubated for 2 h in the incubator. Then fluorescence was measured with Victor X3 (Perkin Elmer) at 530 nm/590 nm.

The test system of test [4] is ZR-75-1 cells. As to the kind of experiment: Proliferation assay in ZR-75-1 cells. The class given is cell-based. The following applies: Homo sapiens, 144 h, Alamar Blue, read-out: ZR75-1 proliferation assay, EC50[M] (arithmetic mean). The source says: (§3) For compound characterization cell survival assays were routinely run in two cell lines. ZR-75-1 is a breast carcinoma cell line containing a focal KAT6A amplification and high KAT6A protein expression. Proliferation of this cell line is inhibited upon treatment with KAT6A inhibitors. As a negative control cell line MDA-MB-436 were used. These cells carry a […] deletion of the KAT6A gene, have a low KAT6A protein expression and are not growth inhibited upon treatment with KAT6A inhibitors.
(§4) For measurements cell lines were plated at the below indicated concentration per […] in 96-well plates in a humidified incubator at 37° C. and 5% CO2.
(§5) ZR-75-1 (ATCC, CRL-1500; breast carcinoma); 3000 cells per well; culture medium: RPMI 1640 (Biochrom #FG 1215) medium containing 2.5% FBS (Biochrom #S0615). LCLC-97TM1 (DSMZ, ACC 388; large cell lung carcinoma); 6000 cells per well; culture medium: RPMI 1640 (Biochrom #FG 1215) medium containing 2.5% FBS (Biochrom #S0615). MDA-MB-436 (CLS, 300278; breast adenocarcinoma); 3000 cells per well; culture medium: DMEM/Ham's F12 (Biochrom #FG 4815) medium containing 2.5% FBS (Biochrom #S0615).
(§6) Each sample was prepared as triplicate and rim wells were excluded. Plates were incubated at 37° C. and 5% CO2 for 144 h. Cell viability was measured by adding 10 μL of Alamar Blue Reagent (Invitrogen #DAL 1100) and plates were incubated for 2 h at 37° C. and 5% CO2. Fluorescence was measured at 590 nm wavelength with a Tecan Spark or Victor X3 MTP-Reader (PerkinElmer).

In test [5] the test system is LCLC-97TM1 cells. Kind of test: Proliferation assay in LCLC-97TM1 cells. The class given is cell-based. As to conditions: Homo sapiens, 144 h, Alamar Blue, read-out: LCLC97TM1 proliferation assay, EC50[M] (arithmetic mean). Here is the method:
as §4, §5, §6
A general note: Alamar Blue is a resazurin reagent that responds to reducing activity.

For test [6], the system named is MDA-MB-436 cells. As to the kind of experiment: Proliferation assay in MDA-MB-436 cells (negative control cell line). As to conditions: Homo sapiens, 144 h, Alamar Blue, read-out: MDA-MB-436 proliferation assay, EC50[M] (arithmetic mean). Format: cell-based.
Source text: as §3, §4, §5, §6

T1 sequence (Q8WYB5 723-2073 limits assumed): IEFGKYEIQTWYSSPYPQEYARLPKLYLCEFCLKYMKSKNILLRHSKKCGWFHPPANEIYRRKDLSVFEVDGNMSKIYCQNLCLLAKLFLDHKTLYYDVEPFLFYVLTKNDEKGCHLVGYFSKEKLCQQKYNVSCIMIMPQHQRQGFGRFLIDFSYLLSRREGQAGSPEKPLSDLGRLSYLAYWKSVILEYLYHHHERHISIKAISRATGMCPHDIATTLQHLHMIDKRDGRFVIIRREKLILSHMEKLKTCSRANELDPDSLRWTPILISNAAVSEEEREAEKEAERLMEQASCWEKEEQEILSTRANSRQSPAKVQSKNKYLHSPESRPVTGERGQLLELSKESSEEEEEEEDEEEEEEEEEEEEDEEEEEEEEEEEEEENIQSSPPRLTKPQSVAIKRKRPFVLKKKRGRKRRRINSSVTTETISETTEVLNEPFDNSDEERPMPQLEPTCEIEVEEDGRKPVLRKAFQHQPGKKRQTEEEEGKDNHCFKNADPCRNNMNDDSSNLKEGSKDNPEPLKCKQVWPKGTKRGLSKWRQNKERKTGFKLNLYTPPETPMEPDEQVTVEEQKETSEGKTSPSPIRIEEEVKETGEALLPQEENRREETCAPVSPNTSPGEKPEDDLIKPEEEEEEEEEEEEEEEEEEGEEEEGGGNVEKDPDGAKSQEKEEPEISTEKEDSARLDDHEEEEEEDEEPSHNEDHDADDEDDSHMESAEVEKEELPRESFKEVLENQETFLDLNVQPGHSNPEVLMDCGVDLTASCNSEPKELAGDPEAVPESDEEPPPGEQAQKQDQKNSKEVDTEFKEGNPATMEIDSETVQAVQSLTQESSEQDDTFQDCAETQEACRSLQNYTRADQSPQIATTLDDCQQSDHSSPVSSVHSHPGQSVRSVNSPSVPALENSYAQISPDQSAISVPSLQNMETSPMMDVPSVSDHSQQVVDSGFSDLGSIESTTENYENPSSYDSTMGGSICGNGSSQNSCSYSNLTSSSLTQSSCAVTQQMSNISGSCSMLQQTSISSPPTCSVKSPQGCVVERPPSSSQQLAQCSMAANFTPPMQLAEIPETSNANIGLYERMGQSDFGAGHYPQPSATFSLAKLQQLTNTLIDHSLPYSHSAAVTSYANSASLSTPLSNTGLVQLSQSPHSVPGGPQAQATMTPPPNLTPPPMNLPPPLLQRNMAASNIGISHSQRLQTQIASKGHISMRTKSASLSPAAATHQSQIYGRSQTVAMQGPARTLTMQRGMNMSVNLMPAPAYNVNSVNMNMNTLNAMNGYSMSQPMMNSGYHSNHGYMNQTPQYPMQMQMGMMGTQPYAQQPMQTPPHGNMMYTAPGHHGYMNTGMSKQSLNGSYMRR
T2 sequence (Q92794 194-810): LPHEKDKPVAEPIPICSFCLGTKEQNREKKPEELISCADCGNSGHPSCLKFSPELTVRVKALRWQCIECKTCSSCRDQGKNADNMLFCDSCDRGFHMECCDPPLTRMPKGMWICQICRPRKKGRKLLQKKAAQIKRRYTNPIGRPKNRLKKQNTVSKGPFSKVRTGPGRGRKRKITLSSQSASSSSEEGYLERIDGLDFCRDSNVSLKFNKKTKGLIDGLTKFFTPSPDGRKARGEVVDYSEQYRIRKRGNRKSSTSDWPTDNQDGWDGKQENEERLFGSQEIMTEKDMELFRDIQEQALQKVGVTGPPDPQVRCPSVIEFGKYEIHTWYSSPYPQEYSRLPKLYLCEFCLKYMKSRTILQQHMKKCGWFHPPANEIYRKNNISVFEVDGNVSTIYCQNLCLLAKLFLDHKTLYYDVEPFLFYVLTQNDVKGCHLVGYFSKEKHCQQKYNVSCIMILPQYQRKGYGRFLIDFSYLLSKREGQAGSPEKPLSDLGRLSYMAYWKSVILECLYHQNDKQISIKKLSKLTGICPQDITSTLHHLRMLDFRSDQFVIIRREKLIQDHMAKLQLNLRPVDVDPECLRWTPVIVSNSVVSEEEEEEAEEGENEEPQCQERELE

As for `O=C(NS(=O)(=O)c1ccccc1OC1CC1)c1cc2c(F)cc(C3CC3)cc2o1` [Example 24, 6-Cyclopropyl-N-[2-(cyclopropyloxy)benzene-1-sulfonyl]-4-fluoro-1-benzofuran-2-carboxamide], the IC50 in test [1] turned out to be 0.019 µM; in test [2] it was 0.0141 µM; in test [3], 2.47e-07 M. In addition, in test [4], the EC50 is 6.74e-07 M.

For `COc1ccc(C(C)(C)C)cc1S(=O)(=O)NC(=O)c1cc2c(F)cc(C3CC3)cc2o1` [Example 66, N-((5-(tert-butyl)-2-methoxyphenyl)sulfonyl)-6-cyclopropyl-4-fluorobenzofuran-2-carboxamide], the EC50 in test [5] is 2.64e-07 M; in test [4] it was 1.76e-07 M; in test [6], over 2e-05 M. Also, the IC50 in test [2] was found to be 0.00331 µM; in test [3] it was 4.96e-08 M.

Regarding `CN(C)c1cc(C2CC2)cc2oc(C(=O)NS(=O)(=O)c3ccccc3)cc12` [Example 42, N-(Benzenesulfonyl)-6-cyclopropyl-4-(dimethylamino)benzofuran-2-carboxamide], the EC50 in test [5], in test [4] and in test [6] was over 2e-05 M each time. The IC50 was 0.417 µM in test [2] and over 2e-05 M in test [3].

With `O=C(NS(=O)(=O)c1ccccc1-c1ccccc1)c1cc2c(F)cc(C3CC3)cc2o1` [Example 38, 6-Cyclopropyl-4-fluoro-N-(2-phenylphenyl)sulfonyl-benzofuran-2-carboxamide], the EC50 in test [5] is 3.21e-06 M; in test [4] it was 9.57e-07 M; in test [6], over 2e-05 M. The IC50 in test [2] stood at 0.0173 µM; in test [3], 1e-06 M.

On to `CN(C)c1cc(C2CC2)cc2oc(C(=O)NS(=O)(=O)c3ccccc3-c3ccccc3)cc12` [Example 44, 6-Cyclopropyl-4-(dimethylamino)-N-(2-phenylphenyl)sulfonyl-benzofuran-2-carboxamide], for which the EC50 was over 2e-05 M in test [5], 8.67e-06 M in test [4] and over 2e-05 M in test [6]. Further, the IC50 in test [2] was determined as 0.052 µM; in test [3], 1.16e-05 M.

`O=C(NS(=O)(=O)c1ccc(Cl)cc1Cl)c1cc2c(F)cc(C3CC3)cc2o1` [Example 37, 6-Cyclopropyl-N-(2,4-dichlorophenyl)sulfonyl-4-fluoro-benzofuran-2-carboxamide]: the values for the EC50 in test [5], in test [4] and in test [6] were over 2e-05 M, 6.28e-06 M and over 2e-05 M, respectively. The IC50 in test [2] is 0.078 µM; in test [3], 1.06e-05 M.

Turning to `O=C(NS(=O)(=O)c1ccccc1-c1ccccc1)c1cc2ccc(-c3ccc(F)cc3)cc2o1` [Example 1, N-([1,1′-biphenyl]-2-sulfonyl)-6-(4-fluorophenyl)-1-benzofuran-2-carboxamide], the values for the IC50 in test [1], in test [2] and in test [3] were 4.79 µM, 3.38 µM and 1.31e-05 M, respectively.

Take `O=C(NS(=O)(=O)c1ccccc1-c1ccccc1)c1cc2ccc(C3CC3)c(F)c2o1` [Example 15, N-([1,1′-biphenyl]-2-sulfonyl)-6-cyclopropyl-7-fluoro-1-benzofuran-2-carboxamide]: the EC50 in test [5] is over 2e-05 M; in test [4], 8.42e-06 M; in test [6], over 2e-05 M. Also, the IC50 in test [2] is 0.908 µM; in test [3], 6.75e-06 M.

Consider `COCCc1ccc2cc(C(=O)NS(=O)(=O)c3ccccc3-c3ccccc3)oc2c1` [Example 26, N-([1,1′-biphenyl]-2-sulfonyl)-6-(2-methoxyethyl)-1-benzofuran-2-carboxamide], for which the IC50 in test [1] was 2.85 µM; in test [2], 1.13 µM; in test [3], 1.56e-05 M.

As to `Cc1ccc2cccc(S(=O)(=O)NC(=O)c3cc4c(OC(F)F)cc(C5CC5)cc4o3)c2n1` [Example 47, 6-Cyclopropyl-4-(difluoromethoxy)-N-[(2-methyl-8-quinolyl)sulfonyl]benzofuran-2-carboxamide], the results for the EC50 in test [5], in test [4] and in test [6] were over 2e-05 M, 3.24e-06 M and over 2e-05 M, respectively. The IC50 in test [2] is 0.00478 µM; in test [3] it was 4.65e-06 M.

In the case of `Cc1ccc2cccc(S(=O)(=O)NC(=O)c3cc4c(C(F)(F)F)cc(C5CC5)cc4o3)c2n1` [Example 50, 6-Cyclopropyl-N-[(2-methyl-8-quinolyl)sulfonyl]-4-(trifluoromethyl)benzofuran-2-carboximide], the EC50 in test [5] was over 2e-05 M; in test [4] it was 1.38e-05 M; in test [6], over 2e-05 M. Moreover, the IC50 is 0.00555 µM in test [2] and 1.95e-06 M in test [3].

Take `CCOc1ccccc1S(=O)(=O)NC(=O)c1oc2cc(C)ccc2c1C` [Example 18, N-(2-Ethoxybenzene-1-sulfonyl)-3,6-dimethyl-1-benzofuran-2-carboxamide]: the EC50 in test [5] is 1.06e-05 M; in test [4], 5.01e-06 M; in test [6], over 2e-05 M. The IC50 came to 0.827 µM in test [2] and 5.56e-06 M in test [3].
